Legend:
Coagulation factor X = Coagulation factor X (Homo sapiens, UniProt P00742); assay: Compound was evaluated for the inhibitory activity against Coagulation factor X
[1] = target: T1, Tissue-type plasminogen activator (Homo sapiens, UniProt P00750); assay: Compound was evaluated for the inhibitory activity against t-PA.
Serine protease 1 [2] = target: T2, Serine protease 1 (Homo sapiens, UniProt P07477); assay: Compound was evaluated for the inhibitory activity against trypsin.
Prothrombin = Prothrombin (Homo sapiens, UniProt P00734); assay: Compound was evaluated for the inhibitory activity against thrombin
Plasminogen = Plasminogen (Homo sapiens, UniProt P00747); assay: Compound was evaluated for the inhibitory activity against plasmin
Sequence of Plasminogen (P00747 97-580 limits assumed): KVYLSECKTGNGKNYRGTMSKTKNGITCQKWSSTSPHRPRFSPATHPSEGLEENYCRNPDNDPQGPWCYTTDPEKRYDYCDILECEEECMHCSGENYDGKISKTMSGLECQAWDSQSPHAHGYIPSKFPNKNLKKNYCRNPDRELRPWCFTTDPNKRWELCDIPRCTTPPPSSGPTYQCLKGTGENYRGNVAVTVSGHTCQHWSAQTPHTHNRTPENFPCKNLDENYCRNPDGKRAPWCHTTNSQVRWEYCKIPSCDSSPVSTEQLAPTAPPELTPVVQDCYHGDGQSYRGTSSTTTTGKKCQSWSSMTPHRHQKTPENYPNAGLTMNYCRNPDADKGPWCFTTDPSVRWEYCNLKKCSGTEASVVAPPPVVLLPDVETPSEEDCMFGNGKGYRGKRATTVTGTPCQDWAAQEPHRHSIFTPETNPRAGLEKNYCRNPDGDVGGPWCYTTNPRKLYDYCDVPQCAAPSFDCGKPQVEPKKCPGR
Sequence of Plasminogen (P00747 581-810 limits assumed): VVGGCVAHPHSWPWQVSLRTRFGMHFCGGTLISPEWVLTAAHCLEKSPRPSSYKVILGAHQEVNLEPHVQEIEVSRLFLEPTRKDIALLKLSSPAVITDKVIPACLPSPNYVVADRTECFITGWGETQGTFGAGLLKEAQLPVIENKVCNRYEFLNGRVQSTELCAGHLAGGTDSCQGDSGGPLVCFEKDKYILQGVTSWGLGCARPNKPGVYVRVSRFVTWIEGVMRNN

[3] = target: Vitamin K-dependent protein C (Homo sapiens, UniProt P04070); assay: Compound was evaluated for the inhibitory activity against Activated protein C
Sequence of Vitamin K-dependent protein C (P04070 43-197 limits assumed): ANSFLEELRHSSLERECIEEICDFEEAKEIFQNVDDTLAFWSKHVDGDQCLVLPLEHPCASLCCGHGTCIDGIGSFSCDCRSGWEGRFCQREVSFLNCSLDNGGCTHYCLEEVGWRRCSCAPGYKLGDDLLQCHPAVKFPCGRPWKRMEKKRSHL
Sequence of Vitamin K-dependent protein C (P04070 212-461 limits assumed): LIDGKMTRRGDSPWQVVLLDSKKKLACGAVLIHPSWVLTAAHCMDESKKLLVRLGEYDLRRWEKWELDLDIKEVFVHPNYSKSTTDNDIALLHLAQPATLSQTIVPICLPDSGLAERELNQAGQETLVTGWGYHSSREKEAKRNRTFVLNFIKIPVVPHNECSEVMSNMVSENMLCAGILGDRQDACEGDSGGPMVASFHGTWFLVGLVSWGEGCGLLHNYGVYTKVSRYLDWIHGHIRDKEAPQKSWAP

Serine protease 1 [4] = target: T2, Serine protease 1; assay: Compound was evaluated for the inhibitory activity against trypsin
[5] = target: T1, Tissue-type plasminogen activator; assay: Compound was evaluated for the inhibitory activity against t-PA

Sequence of Coagulation factor X (P00742 41-179 limits assumed): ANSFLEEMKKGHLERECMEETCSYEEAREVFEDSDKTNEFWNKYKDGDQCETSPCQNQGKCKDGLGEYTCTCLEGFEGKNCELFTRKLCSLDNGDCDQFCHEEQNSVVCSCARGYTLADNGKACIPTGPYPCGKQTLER
Sequence of Coagulation factor X (P00742 235-488 limits assumed): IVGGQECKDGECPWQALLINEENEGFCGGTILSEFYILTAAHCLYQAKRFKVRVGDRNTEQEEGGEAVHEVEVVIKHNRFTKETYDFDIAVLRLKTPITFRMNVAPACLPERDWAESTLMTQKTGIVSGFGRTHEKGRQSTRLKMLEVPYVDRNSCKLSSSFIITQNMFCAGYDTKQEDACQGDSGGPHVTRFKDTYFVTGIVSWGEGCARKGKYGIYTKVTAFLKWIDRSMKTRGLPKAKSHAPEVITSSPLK
T1 sequence (P00750 whole entry): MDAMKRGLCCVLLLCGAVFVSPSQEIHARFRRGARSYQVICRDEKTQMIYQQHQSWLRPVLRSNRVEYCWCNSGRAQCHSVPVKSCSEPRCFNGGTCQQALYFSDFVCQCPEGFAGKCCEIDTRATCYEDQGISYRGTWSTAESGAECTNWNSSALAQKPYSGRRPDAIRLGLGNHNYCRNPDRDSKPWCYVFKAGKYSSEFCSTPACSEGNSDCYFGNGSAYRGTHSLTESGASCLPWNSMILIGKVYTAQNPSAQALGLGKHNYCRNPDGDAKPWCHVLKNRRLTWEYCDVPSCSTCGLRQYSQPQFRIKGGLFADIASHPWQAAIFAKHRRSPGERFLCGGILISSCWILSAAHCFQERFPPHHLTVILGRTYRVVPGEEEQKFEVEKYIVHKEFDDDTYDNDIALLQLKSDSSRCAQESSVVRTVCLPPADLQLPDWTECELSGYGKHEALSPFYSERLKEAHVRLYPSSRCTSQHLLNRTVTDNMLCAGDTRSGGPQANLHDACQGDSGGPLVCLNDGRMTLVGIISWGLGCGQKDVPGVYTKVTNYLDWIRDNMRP
T2 sequence (P07477 whole entry): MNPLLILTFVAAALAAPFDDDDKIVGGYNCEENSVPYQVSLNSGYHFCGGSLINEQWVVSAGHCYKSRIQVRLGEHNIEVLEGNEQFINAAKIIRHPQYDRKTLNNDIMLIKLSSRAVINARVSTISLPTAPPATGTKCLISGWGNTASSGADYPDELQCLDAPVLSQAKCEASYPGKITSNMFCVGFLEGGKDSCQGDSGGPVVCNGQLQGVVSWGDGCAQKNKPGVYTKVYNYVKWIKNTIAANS

| Structure (SMILES) | Ki (Coagulation factor X) [nM] | further results |
| --- | --- | --- |
| O=C(CN1CCN(S(=O)(=O)c2cc3ccc(Cl)cc3s2)CC1=O)NCCCn1ccnc1 | > 1200 | – |
| O=C(CN1CCN(S(=O)(=O)c2cc3ccc(Cl)cc3s2)CC1=O)NCCc1ccncc1 | 59 | – |
| O=C(CN1CCN(S(=O)(=O)c2cc3ccc(Cl)cc3s2)CC1=O)Nc1ccccc1 | > 1200 | – |
| O=C(CN1CCN(S(=O)(=O)c2cc3ccc(Cl)cc3s2)CC1=O)NCCc1ccccn1 | 140 | – |
| O=C(CN1CCN(S(=O)(=O)c2cc3ccc(Cl)cc3s2)CC1=O)NCCc1c[nH]c(S)n1 | 620 | – |
| O=C(CN1CCN(S(=O)(=O)c2cc3ccc(Cl)cc3s2)CC1=O)NC1CCNCC1 | > 1200 | – |
| O=C(CN1CCN(S(=O)(=O)c2cc3ccc(Cl)cc3s2)CC1=O)Nc1ccncc1 | 170 | – |
| Cn1cccc1CCNC(=O)CN1CCN(S(=O)(=O)c2cc3ccc(Cl)cc3s2)CC1=O | > 1200 | – |
| O=C(CN1CCN(S(=O)(=O)c2cc3ccc(Cl)cc3s2)CC1=O)NCCc1cscn1 | 160 | – |
| Cc1[nH]cnc1CCNC(=O)CN1CCN(S(=O)(=O)c2cc3ccc(Cl)cc3s2)CC1=O | 340 | – |
| COC(=O)[C@@H](Cc1cnc[nH]1)NC(=O)CN1CCN(S(=O)(=O)c2cc3ccc(Cl)cc3s2)CC1=O | > 1200 | – |
| O=C(CN1CCN(S(=O)(=O)c2cc3ccc(Cl)cc3s2)CC1=O)NCCc1cccnc1 | 250 | – |
| COC(=O)[C@H](Cc1c[nH]cn1)NC(=O)CN1CCN(S(=O)(=O)c2cc3ccc(Cl)cc3s2)CC1=O | > 1200 | – |
| O=C(CN1CCN(S(=O)(=O)c2cc3ccc(Cl)cc3s2)CC1=O)NCCc1cnc[nH]1 | 21 | Ki (Serine protease 1 [4]): > 2900 nM; Ki (Prothrombin): > 4000 nM; Ki (Plasminogen): > 7300 nM; Ki [3]: > 18000 nM; Ki [5]: > 8700 nM |

Further lines, with some results ahead:

| Ki (Coagulation factor X) [nM] | Structure (SMILES) | further results |
| --- | --- | --- |
| 620 | Nc1nc(CCNC(=O)CN2CCN(S(=O)(=O)c3cc4ccc(Cl)cc4s3)CC2=O)cs1 | – |
| 270 | Cc1ncsc1CCNC(=O)CN1CCN(S(=O)(=O)c2cc3ccc(Cl)cc3s2)CC1=O | – |
| > 1200 | O=C(CN1CCN(S(=O)(=O)c2cc3ccc(Cl)cc3s2)CC1=O)NCCn1ccnc1 | – |
| 97 | O=C(CN1CCN(S(=O)(=O)c2cc3ccc(Cl)cc3s2)CC1=O)Nc1ccncn1 | – |
| > 1200 | O=C(CN1CCN(S(=O)(=O)c2cc3ccc(Cl)cc3s2)CC1=O)Nc1cccnc1 | – |
| > 1200 | CN(C(=O)CN1CCN(S(=O)(=O)c2cc3ccc(Cl)cc3s2)CC1=O)c1ccncc1 | – |
| 140 | Nc1cc(CCNC(=O)CN2CCN(S(=O)(=O)c3cc4ccc(Cl)cc4s3)CC2=O)ccn1 | – |
| 12 | Cn1cncc1CCNC(=O)CN1CCN(S(=O)(=O)c2cc3ccc(Cl)cc3s2)CC1=O | Ki [1]: > 8700 nM; Ki (Serine protease 1 [2]): > 2900 nM; Ki (Prothrombin): > 4000 nM; Ki (Plasminogen): > 7300 nM; Ki [3]: > 18000 nM |
| 430 | Cn1cnc(CCNC(=O)CN2CCN(S(=O)(=O)c3cc4ccc(Cl)cc4s3)CC2=O)c1 | – |
| > 1200 | O=C(CN1CCN(S(=O)(=O)c2cc3ccc(Cl)cc3s2)CC1=O)NCc1cccnc1 | – |

Reference: ChEMBL document CHEMBL1133063, “Nonbenzamidine compounds as selective factor Xa inhibitors” (Bioorg Med Chem Lett, 2000)
